Results on 10 molecules are retold here after ChEMBL document CHEMBL1201862, “PubChem BioAssay data set” (2004).

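Where inhibition never reached the appropriate level, the endpoint shown equals the highest concentration tested. Otherwise, values were interpolated linearly from a five-concentration, 48-hour dose response in 96-well plates. At the GI50, growth is halved.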 Calls of active or inactive are those of the source. Cut-off read from the data, not from the text of the source: active = GI50 up to about 1.1 µM and inactive = higher. Where a SMILES comes first, the peptide text is derived from it. [ ]: non-standard residue; d: D form. The star is where a group is joined. ξ: configuration not given here. Propanoyl(3-(4-MeO-Ph)) = COc1ccc(CCC(=O)*)cc1; Thr(3ξ) = CC(O)[C@H](N)C(=O)O; dNMeL = CN[C@H](CC(C)C)C(=O)O; Ac5c = NC1(C(=O)O)CCCC1; OBn = c1ccc(CO*)cc1; ξLac = CC(O)C(=O)O Where only a bound is given, the exact number is not on record here.

Test in all cases: NCI-60 cell line screen, 48 h
Assay [1] deals with A549.
In assay [2] the test system is DU-145.
Assay [3] has as its system HCT-15.
For assay [4], the system named is HOP-92.
Assay [5] relates to IGROV-1.
For assay [6], the system named is LOX IMVI.
Assay [7] relates to MCF7.
For assay [8], the system named is NCI-H226.
Assay [9] concerns NCI-H460.
The test system of assay [10] is NCI/ADR-RES.
Assay [11] has as its system PC-3.
Assay [12] relates to RPMI-8226.
Assay [13] has as its system SF-268.
The test system of assay [14] is SF-295.
The subject of assay [15] is SK-MEL-5.
In assay [16] the test system is SN12C.
The test system of assay [17] is SW-620.
Assay [18] concerns T47D.
Assay [19] concerns U-251.
The test system of assay [20] is UO-31.

Turning to `CN(C)CCCNc1ccc2c(=O)n(CCN(C)C)c(=O)n3c4ccccc4c(=O)c1c23`, the GI50 in assay [1] is 0.155 µM (active); in [2], 0.124 µM (active); in [3], 0.0562 µM; in [4], 0.664 µM (active); in assay [5] it was 0.148 µM (active); in assay [6], 0.144 µM (active). Further, the GI50 in assay [7] was 0.0885 µM (active); in assay [8], 0.368 µM (active); in assay [9], 0.0335 µM (active); in assay [10], 0.396 µM (active); in assay [11] it was 0.258 µM (active); in assay [12], 0.129 µM (active). Besides, the GI50 in [13] is 0.603 µM (active); in assay [14], 0.245 µM (active); in assay [15] it was 0.35 µM (active); in assay [16], 0.103 µM (active); in assay [17], 0.0637 µM (active); in assay [18] it was 1.03 µM (active). The GI50 in [19] was 0.234 µM (active); in [20] it was 0.355 µM (active).

Turning to `COc1ccc(CCC(=O)OC(C)[C@H](NC(=O)[C@@H](CC(C)C)N(C)C(=O)[C@@H]2CCCN2C(=O)C(C)O)C(=O)OCc2ccccc2)cc1` (stereo not given in full) (H-[ξLac]P[dNMeL][Thr(3ξ)](Propanoyl(3-(4-MeO-Ph)))-OBn), the GI50 in [1] was 52.4 µM (inactive); in assay [2] it was 62.5 µM (inactive); in assay [3] it was 32.3 µM; in assay [4], 19.1 µM (inactive); in assay [5] it was 30.5 µM (inactive); in assay [6], 17.9 µM (inactive). Further, the GI50 was 38.1 µM (inactive) in assay [7]; 30.4 µM (inactive) in assay [8]; 64.4 µM (inactive) in assay [9]; 27.5 µM (inactive) in assay [10]; 30.5 µM (inactive) in [11]; 28.7 µM (inactive) in [12]. The GI50 in [13] was 31.5 µM (inactive); in assay [14], 35.2 µM (inactive); in [15], 15.5 µM (inactive); in assay [16], 34.9 µM (inactive); in assay [17], 32.3 µM (inactive); in assay [18] it was 33.6 µM (inactive). Besides, the figures for the GI50 in [19] and in [20] were 26.5 µM (inactive) and 40.5 µM (inactive), respectively.

`CC1(C)OC(=S)N(c2ccccc2)C12C=Cc1cc3ccccc3cc1O2` (stereo not given): the GI50 in assay [1] is > 100 µM (inactive); in assay [2] it was > 100 µM (inactive); in assay [3], more than 100 µM; in assay [4], > 100 µM (inactive); in assay [5] it was 6.28 µM (inactive); in assay [6] it was > 100 µM (inactive). Also, the GI50 in [7] is > 100 µM (inactive); in [8], > 100 µM (inactive); in [9], > 100 µM (inactive); in assay [10] it was > 100 µM (inactive); in [11] it was 44.2 µM (inactive); in assay [12], 92 µM (inactive). Moreover, the GI50 in assay [13], in [14], in [15], in assay [16], in assay [17] and in [18] was > 100 µM (inactive) throughout. For the same molecule, the GI50 in [19] and in [20] was > 100 µM (inactive) each time.

With `NC1(C(=O)NC2(C(=O)O)CCCC2)CCCC1` (H-[Ac5c]-[Ac5c]-OH), the GI50 in assay [1] was > 100 µM (inactive); in assay [2], > 100 µM (inactive); in [3] it was more than 100 µM; in [4], > 100 µM (inactive); in assay [5], > 100 µM (inactive); in assay [6] it was > 100 µM (inactive). In addition, the GI50 in assay [7], in assay [8], in assay [9], in [10], in assay [11] and in assay [12] was > 100 µM (inactive) throughout. For the same molecule, the GI50 in [13], in assay [14], in assay [15], in [16], in [17] and in assay [18] was > 100 µM (inactive) each time. For the same molecule, the GI50 in assay [19] and in assay [20] was > 100 µM (inactive) each time.

With `Cc1cc(NS(=O)(=O)c2ccc(NC(=O)c3ccc4nc5ccccc5c(Nc5ccc(S(=O)(=O)Nc6cc(C)on6)cc5)c4c3)cc2)no1`, the GI50 in assay [1] is > 50 µM (inactive); in assay [2] it was > 50 µM (inactive); in assay [3], more than 50 µM; in assay [4] it was > 50 µM (inactive); in assay [5] it was > 50 µM (inactive); in assay [6] it was > 50 µM (inactive). The GI50 in assay [7], in assay [8], in assay [9], in [10], in assay [11] and in assay [12] was > 50 µM (inactive) each time. Further, the GI50 in [13], in assay [14], in assay [15], in assay [16], in assay [17] and in [18] was > 50 µM (inactive) in each case. Besides, the GI50 in [19] and in [20] was > 50 µM (inactive) each time.

For `O=C(/C=C/c1ccccc1)CCC1C(=O)c2ccccc2C1=O`, the GI50 in [1] is > 100 µM (inactive); in assay [2], > 100 µM (inactive); in [3] it was 42.6 µM; in assay [4], > 100 µM (inactive); in assay [5], > 100 µM (inactive); in assay [6], > 100 µM (inactive). Besides, the GI50 in assay [7] is > 100 µM (inactive); in assay [8], > 100 µM (inactive); in assay [9], > 100 µM (inactive); in assay [10], > 100 µM (inactive); in assay [11], > 100 µM (inactive); in assay [12], 73.6 µM (inactive). For the same molecule, the GI50 in [13], in [14], in [15], in assay [16], in assay [17] and in assay [18] was > 100 µM (inactive) each time. Further, the GI50 in assay [19] and in assay [20] was > 100 µM (inactive) throughout.

Turning to `C/C=C\C1OC1(C)c1cc(=O)c2c(C)cc3c(c2o1)C(=O)c1c(O)c(C2CC(C)(N(C)C)C(OC(C)=O)C(C)O2)cc(C2CC(N(C)C)C(O)C(C)O2)c1C3=O` (stereo not given), the GI50 in assay [1] is < 0.00375 µM (active); in [2], 0.00405 µM (active); in assay [3], 0.00404 µM; in assay [4] it was 0.00593 µM (active); in [5], 0.00569 µM (active); in [6], < 0.00375 µM (active). The GI50 in assay [7] is < 0.00375 µM (active); in assay [8], 0.00461 µM (active); in assay [9], < 0.00375 µM (active); in [10], 0.00409 µM (active); in [11], 0.00405 µM (active); in assay [12], < 0.00375 µM (active). The GI50 in assay [13] is 0.00516 µM (active); in assay [14], < 0.00375 µM (active); in assay [15], 0.00414 µM (active); in assay [16] it was < 0.00375 µM (active); in assay [17], < 0.00375 µM (active); in assay [18] it was 0.00386 µM (active). The GI50 was < 0.00375 µM (active) in assay [19] and 0.00509 µM (active) in assay [20].

In the case of `O=C1C=CC(=O)C(CNc2ccc(C(=O)OC34CC5CC(CC(C5)C3)C4)cc2)=C1`, the GI50 in [1] is 16.1 µM (inactive); in assay [2], 19.4 µM (inactive); in assay [3] it was 2.44 µM; in [4] it was 3.28 µM (inactive); in assay [5] it was 1.54 µM (inactive); in assay [6], 4.57 µM (inactive). Besides, the GI50 in assay [7] was 3.43 µM (inactive); in assay [8] it was 2 µM (inactive); in [9], 15.2 µM (inactive); in [10], 3.44 µM (inactive); in assay [11], 6.07 µM (inactive); in [12], 1.93 µM (inactive). In addition, the GI50 is 11.9 µM (inactive) in assay [13]; 16.6 µM (inactive) in [14]; 4.38 µM (inactive) in assay [15]; 11.3 µM (inactive) in assay [16]; 10.5 µM (inactive) in assay [17]; 2.49 µM (inactive) in [18]. The results for the GI50 in [19] and in assay [20] were 4.06 µM (inactive) and 4.24 µM (inactive), respectively.

As for `NS(=O)(=O)c1cc2c(cc1Cl)NCNS2(=O)=O` [HYDROCHLOROTHIAZIDE], the GI50 is > 100 µM (inactive) in assay [1]; > 100 µM (inactive) in [2]; more than 100 µM in assay [3]; > 100 µM (inactive) in assay [4]; > 100 µM (inactive) in assay [5]; > 100 µM (inactive) in [6]. The GI50 in [7], in assay [8], in assay [9], in assay [10], in [11] and in [12] was > 100 µM (inactive) throughout. Also, the GI50 in [13], in [14], in [15], in [16], in assay [17] and in assay [18] was > 100 µM (inactive) in each case. The GI50 in assay [19] and in assay [20] was > 100 µM (inactive) in each case.

For `Cc1ccc(C2(N3CCCC3)OC(C)(C)c3cccc4cccc2c34)cc1` (stereo not given), the GI50 is 11 µM (inactive) in assay [1]; 16.9 µM (inactive) in [2]; 15.6 µM in assay [3]; 1.48 µM (inactive) in [4]; 15.9 µM (inactive) in assay [5]; 15.7 µM (inactive) in [6]. For the same molecule, the GI50 in assay [7] was 17.1 µM (inactive); in [8] it was 15.3 µM (inactive); in assay [9] it was 13.5 µM (inactive); in assay [10], 15 µM (inactive); in assay [11], 15.4 µM (inactive); in [12], 22.3 µM (inactive). Further, the GI50 in [13] is 12.9 µM (inactive); in assay [14], 14.5 µM (inactive); in assay [15], 15 µM (inactive); in assay [16] it was 17.5 µM (inactive); in assay [17] it was 16 µM (inactive); in assay [18], 16.3 µM (inactive). The GI50 was 16 µM (inactive) in assay [19] and 15.1 µM (inactive) in assay [20].
